The structures appear in SMILES notation.

The target in one test is H1 receptor. The note with it: read-out: Ki H1 receptor (ChEMBLdb); known activity in ChEMBLdb ref 28; cited from earlier work.
The next test concerns the target human H1R (Homo sapiens, UniProt P35367). Kind of test: Radioligand displacement assay, [3H]-mepyramine binding. Particulars: displacement of [3H]-mepyramine, membranes of HEK293T cells transiently expressing human H1R; mean ± SEM, at least three independent measurements.
For the next test, the target named is hH1R (Homo sapiens, UniProt P35367). Kind of test: Inositol phosphate. In kind it is cell-based. Particulars: for functional character in histamine stimulated InsP accumulation assays: HEK293T cells transiently transfected with hH1R.
hH1R, sequence (P35367 whole entry): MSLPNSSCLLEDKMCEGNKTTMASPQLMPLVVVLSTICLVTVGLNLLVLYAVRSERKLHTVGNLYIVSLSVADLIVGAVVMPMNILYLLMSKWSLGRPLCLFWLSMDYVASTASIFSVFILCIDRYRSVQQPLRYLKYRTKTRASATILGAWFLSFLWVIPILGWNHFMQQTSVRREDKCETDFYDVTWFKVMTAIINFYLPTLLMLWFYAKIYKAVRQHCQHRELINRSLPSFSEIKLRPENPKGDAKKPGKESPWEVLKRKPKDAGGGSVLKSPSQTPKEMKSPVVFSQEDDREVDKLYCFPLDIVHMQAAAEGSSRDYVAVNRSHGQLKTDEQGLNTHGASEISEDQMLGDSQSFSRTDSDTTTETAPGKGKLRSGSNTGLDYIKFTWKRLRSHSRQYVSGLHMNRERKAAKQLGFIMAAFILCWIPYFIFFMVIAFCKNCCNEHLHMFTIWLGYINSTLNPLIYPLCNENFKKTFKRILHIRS
The target in another test is Human H3R (Homo sapiens, UniProt Q9Y5N1). Description: Radioligand displacement assay, [3H]-N-α-methylhistamine binding. On the technique in general: Displacement assays read how much labelled ligand stays bound in the presence of the test substance.
Human H3R, sequence (Q9Y5N1 whole entry): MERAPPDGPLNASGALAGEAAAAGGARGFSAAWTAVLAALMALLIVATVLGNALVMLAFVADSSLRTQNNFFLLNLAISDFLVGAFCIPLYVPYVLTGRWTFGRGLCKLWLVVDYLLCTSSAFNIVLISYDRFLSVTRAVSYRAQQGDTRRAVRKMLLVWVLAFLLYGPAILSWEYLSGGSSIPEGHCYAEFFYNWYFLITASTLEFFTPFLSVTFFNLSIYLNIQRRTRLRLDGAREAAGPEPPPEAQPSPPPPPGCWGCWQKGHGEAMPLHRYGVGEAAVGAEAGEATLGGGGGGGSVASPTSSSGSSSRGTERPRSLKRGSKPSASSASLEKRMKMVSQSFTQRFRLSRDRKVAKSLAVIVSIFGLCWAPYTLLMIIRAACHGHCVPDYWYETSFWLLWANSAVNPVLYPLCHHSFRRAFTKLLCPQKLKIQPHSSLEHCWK

human H1R, sequence (P35367 whole entry): as the sequence (P35367 whole entry) above

Turning to `Cc1ccc(/C(=C\CN2CCCC2)c2ccccn2)cc1` [Triprolidine], the Ki on H1 receptor is at most 10 µM.
As for `NC1=NCC2c3ccccc3Cc3ccccc3N12` (stereo not drawn) [Epinastine], at H1 receptor, the Ki was at most 10 µM.
For the compound `CN1CCN(c2nc(N3CCCC3)c3cnn(C)c3n2)CC1` [compound 4], the “pKi H1R” value on human H1R came to 7.21 ± 0.03.
In the case of `c1ccc(Cc2ccccc2OC2CCNCC2)cc1` [compound 3], at hH1R (tested against histamine (0.1 μM), InsP accumulation), the “inhibition of histamine-induced effects” value is given as “completely inhibit”.
In the case of `c1ccc2c(c1)n(CCN1CCCCC1)c1ncnn21` [compound 15], the “functional character in histamine stimulated InsP accumulation assays” value (“functional character” for short) at hH1R is on record as “inverse agonists”. The H3R affinity result on Human H3R is listed as “without H3R affinity”.
For the compound `CNCCCOc1cccc2ccccc12` [compound 9], the “functional character” value at hH1R is “very weak partial agonist”. In addition, at hH1R (InsP accumulation, HEK293T hH1R), the intrinsic activity is given as 0.07.
Consider `CN(C)CCCN1c2ccccc2CCc2ccccc21` [Imipramine], for which the Ki on H1 receptor is at most 10 µM.
Regarding `c1ccc2c(c1)nc1n(CCN3CCCCC3)cnn21` [compound 13], on hH1R, the “functional character” value is recorded as “inverse agonists”.
Regarding `c1cnc2c(c1)cc([C@@H]1CCCO1)n2CCN1CCCCC1` [compound 10], on hH1R, the “functional character” value was “inverse agonists”. In addition, the H3R affinity entry at Human H3R is reported as “without H3R affinity”.

In general, Ki refers to a dissociation constant, usually derived from enzyme kinetics or from competition with a known ligand.

(Values after paper PMC3228891 (Journal of medicinal chemistry, 2011).)
